From patent US20230066011A1, “PYRROLOPYRIMIDINE DERIVATIVE, AND PHARMACEUTICAL COMPOSITION FOR PREVENTING OR TREATING PROTEIN KINASE-RELATED DISEASE COMPRISING SAME AS ACTIVE INGREDIENT” (VORONOI CO., LTD., priority 2019, published 2023)

Assays:
DYRK1 = DYRK1 (Homo sapiens, UniProt Q13627); assay: Kinase HotSpot service (Reaction Biology Corporation), DYRK1; format: biochemical; conditions: ATP 10 uM, read-out: DYRK1 IC50 (values indicated by *)
Method: (§1) The inhibitory activities of the compounds were measured at a 3-fold concentration gradient starting from a maximum compound concentration of […], and the values measured using the Kinase HotSpot service (Reaction Biology Corporation) are indicated by an asterisk (*).
(§2) All the experimental methods were performed as provided by the Kinase HotSpot Customer Protocol (http://www.reactionbiology.com//Kinase_Assay_Protocol).

human DYRK1A and tau = assay: Inhibition of tau phosphorylation, ClariCELL Kinase Cell-Based Assay, HEK 293 cells expressing human DYRK1A and tau; conditions: for inhibition at 1 µM: HEK293, read-out: % inhibition at 1 uM, tau phosphorylation, compound 1 uM; for inhibition at 0.25 µM / inhibition at 0.5 µM: HEK293, tau phosphorylation; for inhibition at 0.25 µM: compound 0.25 uM; for inhibition at 0.5 µM: compound 0.5 uM
How it was run: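 Cell-based service assay: HEK 293 cells transiently expressing human DYRK1A and tau were treated with compound and lysed. Released tau was plate-captured and its phosphorylation quantified by ELISA with a phospho-tau-specific antibody.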

IL-6 = assay: Inhibition of LPS-induced IL-6 secretion of THP-1 monocytes (ELISA); format: cell-based, human; conditions: Homo sapiens, THP-1; compound 0.5 μM, LPS 500 ng/mL, 24 hours; read-out: THP1/IL6 (% inhib)
Method: To evaluate an inhibitory effect on cytokine secretion of monocytes, THP-1 cells (ATCC, #TIB-202) as a human-derived monocyte line were cultured in an RPMI-1640 (Hyclone, SH30027.01) medium supplemented with 10% fetal bovine serum (Hyclone, SH30084.03), 1% penicillin streptomycin (Welgene, LS202-02), and 50 μM 2-mercaptoethanol (Gibco, #21985023). In the test, the cells were seeded in a 48-well plate (SPL, #30048) at a density of 1.5 to 2×10^5 cells/250 μL per well, and cultured at 37° C. for 16 hours in a 5% CO2 incubator. Thereafter, the compound was diluted with DMSO so that the final concentration of the compound was 0.5 μM. Then, the cells were treated with the diluted compound before an hour of treatment with lipopolysaccharides (LPS) (Sigma, #L6529). After the treatment with the compound, the cells were treated with LPS so that the final concentration was 500 ng/mL. Then, a cell culture broth was collected after 24 hours of culture, and levels of cytokine IL-6 (R&D Systems, #D6050) and TNF-α (R&D Systems, #DTA00D) comprised in the culture broth were measured using respective ELISA kits. After an experiment was performed according to the manufacturer's guidelines, cell analysis was performed by measuring the optical density at 450 nm using a microplate reader.

CLK1 = biological target: T1, CLK1 (Homo sapiens, UniProt P49759); assay: Kinase HotSpot service (Reaction Biology Corporation), CLK1; format: biochemical; conditions: ATP 10 uM, read-out: CLK1 IC50 (values indicated by *)
T1 construct: purchased DiscoverX Corp. (ScanMAX Kinase analysis panel, service)
T1 sequence (P49759 whole entry): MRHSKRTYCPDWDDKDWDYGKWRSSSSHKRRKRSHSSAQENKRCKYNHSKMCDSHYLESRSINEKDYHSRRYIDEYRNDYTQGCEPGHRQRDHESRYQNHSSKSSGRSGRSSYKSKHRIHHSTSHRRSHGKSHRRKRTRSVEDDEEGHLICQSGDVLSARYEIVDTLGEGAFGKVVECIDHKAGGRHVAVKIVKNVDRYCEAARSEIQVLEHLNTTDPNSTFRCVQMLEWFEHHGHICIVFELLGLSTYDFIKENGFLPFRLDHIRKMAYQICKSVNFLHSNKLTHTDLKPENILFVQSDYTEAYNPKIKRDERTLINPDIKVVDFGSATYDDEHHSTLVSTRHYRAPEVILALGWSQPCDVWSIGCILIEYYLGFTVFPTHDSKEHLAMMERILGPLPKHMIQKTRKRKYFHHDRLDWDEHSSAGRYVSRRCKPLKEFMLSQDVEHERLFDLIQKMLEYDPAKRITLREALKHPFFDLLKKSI
Method: as §1, §2

TTK = biological target: T2, TTK (Homo sapiens, UniProt P33981); assay: TTK enzyme inhibition, ADP-Glo kinase assay; format: biochemical; design: purchased SignalChem T20-10G; conditions: ATP 5 μM
T2 sequence (P33981 1-857): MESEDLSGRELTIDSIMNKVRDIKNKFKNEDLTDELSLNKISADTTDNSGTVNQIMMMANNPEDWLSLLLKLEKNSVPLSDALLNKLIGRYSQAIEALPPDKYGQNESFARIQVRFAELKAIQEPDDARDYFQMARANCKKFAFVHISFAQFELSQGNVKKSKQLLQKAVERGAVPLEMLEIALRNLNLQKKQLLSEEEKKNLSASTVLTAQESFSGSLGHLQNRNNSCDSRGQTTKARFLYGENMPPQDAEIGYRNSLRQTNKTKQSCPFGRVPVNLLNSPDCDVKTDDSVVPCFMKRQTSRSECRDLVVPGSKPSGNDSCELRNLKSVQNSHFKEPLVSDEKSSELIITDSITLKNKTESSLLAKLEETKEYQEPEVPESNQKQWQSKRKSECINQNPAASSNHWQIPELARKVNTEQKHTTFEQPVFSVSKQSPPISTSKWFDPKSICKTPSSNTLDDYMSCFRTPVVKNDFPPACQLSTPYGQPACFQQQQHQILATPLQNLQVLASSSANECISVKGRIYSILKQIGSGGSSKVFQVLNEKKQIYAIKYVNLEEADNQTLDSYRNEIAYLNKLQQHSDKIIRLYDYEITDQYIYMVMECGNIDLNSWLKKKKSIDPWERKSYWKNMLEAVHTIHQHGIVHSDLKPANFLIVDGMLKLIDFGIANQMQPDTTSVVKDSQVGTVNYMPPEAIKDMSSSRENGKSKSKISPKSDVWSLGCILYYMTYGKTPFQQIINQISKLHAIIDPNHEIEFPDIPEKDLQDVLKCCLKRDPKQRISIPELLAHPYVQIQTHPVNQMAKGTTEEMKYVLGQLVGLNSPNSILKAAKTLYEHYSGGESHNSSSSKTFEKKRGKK
How it was run: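 Purified human TTK (7.5 ng) was reacted with 5 μM ATP and 0.2 μg MBP substrate for 4 h at 25 °C in 40 mM Tris-HCl pH 7.4, 20 mM MgCl2, 0.1 mg/mL BSA, 50 μM DTT. ADP formation was read by ADP-Glo luminescence, and IC50 was taken relative to solvent control.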

MDA-MB-468 cell line = assay: Inhibition of proliferation of MDA-MB-468 cancer cells (Cell Titer-Glo); format: cell-based; conditions: Homo sapiens, MDA-MB-468, 72 hours
How it was run: (§3)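 Luminescence from Cell Titer-Glo (10 min, room temperature) gave GI50 after 72 h compound treatment. Final compound levels spanned 0.000169–10.000000 μM over 11 points, 3-fold steps; 2,000 cells/well grown in DMEM or RPMI.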

LRRK2 [1] = biological target: T3, LRRK2 (Homo sapiens, UniProt Q5S007); assay: Kinase HotSpot service (Reaction Biology Corporation), LRRK2; format: biochemical; design: purchased DiscoverX Corp. (ScanMAX Kinase analysis panel, service); conditions: ATP 10 uM, read-out: LRRK2 IC50 (values indicated by *)
Method: as §1, §2
Target sequence in this assay (Q5S007 whole entry): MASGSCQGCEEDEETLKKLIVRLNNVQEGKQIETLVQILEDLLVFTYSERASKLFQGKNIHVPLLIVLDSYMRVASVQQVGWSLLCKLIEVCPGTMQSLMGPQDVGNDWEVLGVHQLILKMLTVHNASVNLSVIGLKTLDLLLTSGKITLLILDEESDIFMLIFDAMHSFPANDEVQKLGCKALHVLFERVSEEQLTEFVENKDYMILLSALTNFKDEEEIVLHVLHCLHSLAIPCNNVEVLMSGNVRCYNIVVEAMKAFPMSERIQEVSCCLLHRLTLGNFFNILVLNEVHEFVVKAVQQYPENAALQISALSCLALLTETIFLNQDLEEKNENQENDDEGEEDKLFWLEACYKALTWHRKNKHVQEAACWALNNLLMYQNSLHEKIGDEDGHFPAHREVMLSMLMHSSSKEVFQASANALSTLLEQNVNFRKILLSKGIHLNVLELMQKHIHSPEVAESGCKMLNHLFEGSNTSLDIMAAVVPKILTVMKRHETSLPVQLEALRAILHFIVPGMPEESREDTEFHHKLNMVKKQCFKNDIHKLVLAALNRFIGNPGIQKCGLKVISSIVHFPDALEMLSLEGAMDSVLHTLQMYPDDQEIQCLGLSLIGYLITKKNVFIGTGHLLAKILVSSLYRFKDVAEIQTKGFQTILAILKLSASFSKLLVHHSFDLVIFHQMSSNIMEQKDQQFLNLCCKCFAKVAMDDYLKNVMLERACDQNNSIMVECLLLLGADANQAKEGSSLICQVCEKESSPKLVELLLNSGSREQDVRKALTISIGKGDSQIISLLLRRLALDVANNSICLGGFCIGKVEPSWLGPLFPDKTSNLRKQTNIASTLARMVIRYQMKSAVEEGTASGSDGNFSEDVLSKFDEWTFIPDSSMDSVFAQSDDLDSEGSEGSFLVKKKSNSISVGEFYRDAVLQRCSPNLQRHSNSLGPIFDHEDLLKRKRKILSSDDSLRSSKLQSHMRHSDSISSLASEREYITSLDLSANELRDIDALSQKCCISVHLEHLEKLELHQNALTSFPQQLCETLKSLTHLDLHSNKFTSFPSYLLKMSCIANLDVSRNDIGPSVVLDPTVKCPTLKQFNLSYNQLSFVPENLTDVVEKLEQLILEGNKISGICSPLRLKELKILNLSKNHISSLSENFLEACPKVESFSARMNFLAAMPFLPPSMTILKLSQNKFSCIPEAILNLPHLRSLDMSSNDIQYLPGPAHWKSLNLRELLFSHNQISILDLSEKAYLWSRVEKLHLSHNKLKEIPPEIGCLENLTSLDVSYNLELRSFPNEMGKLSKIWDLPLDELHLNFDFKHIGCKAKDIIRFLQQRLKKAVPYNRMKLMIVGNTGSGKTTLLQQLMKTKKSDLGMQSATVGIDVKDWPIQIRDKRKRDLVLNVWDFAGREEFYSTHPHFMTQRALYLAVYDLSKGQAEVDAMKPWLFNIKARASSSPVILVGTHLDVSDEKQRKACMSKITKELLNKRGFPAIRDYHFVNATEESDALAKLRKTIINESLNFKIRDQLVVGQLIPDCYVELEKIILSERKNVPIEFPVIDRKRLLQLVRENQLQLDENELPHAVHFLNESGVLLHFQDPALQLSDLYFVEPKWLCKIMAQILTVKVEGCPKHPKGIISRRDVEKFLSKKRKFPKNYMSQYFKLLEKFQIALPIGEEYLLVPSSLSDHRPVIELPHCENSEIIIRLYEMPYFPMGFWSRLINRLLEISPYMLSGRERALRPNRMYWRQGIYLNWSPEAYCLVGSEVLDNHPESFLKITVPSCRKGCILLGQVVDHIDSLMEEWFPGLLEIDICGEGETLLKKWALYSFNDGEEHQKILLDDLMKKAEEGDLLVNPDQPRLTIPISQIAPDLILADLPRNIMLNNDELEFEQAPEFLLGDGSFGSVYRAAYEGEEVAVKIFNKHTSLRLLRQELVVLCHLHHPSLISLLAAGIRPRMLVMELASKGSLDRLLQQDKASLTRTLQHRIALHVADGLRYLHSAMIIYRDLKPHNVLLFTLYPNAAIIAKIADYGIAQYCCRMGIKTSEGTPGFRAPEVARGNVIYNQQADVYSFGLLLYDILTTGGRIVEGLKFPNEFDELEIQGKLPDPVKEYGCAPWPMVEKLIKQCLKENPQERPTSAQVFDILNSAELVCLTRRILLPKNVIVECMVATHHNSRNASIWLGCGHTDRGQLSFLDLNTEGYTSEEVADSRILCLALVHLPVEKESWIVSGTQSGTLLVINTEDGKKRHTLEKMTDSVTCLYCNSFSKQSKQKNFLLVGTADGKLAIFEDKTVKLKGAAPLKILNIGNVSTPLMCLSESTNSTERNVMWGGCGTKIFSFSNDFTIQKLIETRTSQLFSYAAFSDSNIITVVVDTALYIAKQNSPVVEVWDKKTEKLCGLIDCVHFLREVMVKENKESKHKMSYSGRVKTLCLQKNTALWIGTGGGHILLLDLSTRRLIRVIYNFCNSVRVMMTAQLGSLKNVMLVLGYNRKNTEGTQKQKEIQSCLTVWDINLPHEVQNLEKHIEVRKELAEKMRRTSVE

LRRK2 (G2019S) [2] = biological target: T4, LRRK2 (G2019S) (Homo sapiens, UniProt Q5S007, G2019S); assay: Kinase HotSpot service (Reaction Biology Corporation), LRRK2 (G2019S); format: biochemical; design: purchased DiscoverX Corp. (ScanMAX Kinase analysis panel, service); conditions: ATP 10 uM, read-out: LRRK2 (G2019S) IC50 (values indicated by *)
Method: as §1, §2
Target sequence in this assay (Q5S007 whole entry G2019S): as the sequence (Q5S007 whole entry) above, with G2019S counted along it

MDA-MB-231 cell line = assay: Inhibition of proliferation of MDA-MB-231 cancer cells (Cell Titer-Glo); format: cell-based; conditions: Homo sapiens, 72 hours
How it was run: as §3

LRRK2 (G2019S) [3] = biological target: T4, LRRK2 (G2019S); assay: LRRK2 G2019S enzyme inhibition, ADP-Glo kinase assay; format: biochemical; design: purchased SignalChem L10-12GG; conditions: ATP 25 μM
How it was run: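 IC50 derived from luminescent ADP-Glo readout against untreated solvent control, twelve final compound concentrations from 50 μM downward. Reaction: recombinant human LRRK2 G2019S enzyme, 25 μM ATP, substrate, pH 7.4 Tris buffer with MgCl2/BSA/DTT, 25° C. for 2 hours.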
Target sequence in this assay (Q5S007 970-2527 G2019S limits assumed): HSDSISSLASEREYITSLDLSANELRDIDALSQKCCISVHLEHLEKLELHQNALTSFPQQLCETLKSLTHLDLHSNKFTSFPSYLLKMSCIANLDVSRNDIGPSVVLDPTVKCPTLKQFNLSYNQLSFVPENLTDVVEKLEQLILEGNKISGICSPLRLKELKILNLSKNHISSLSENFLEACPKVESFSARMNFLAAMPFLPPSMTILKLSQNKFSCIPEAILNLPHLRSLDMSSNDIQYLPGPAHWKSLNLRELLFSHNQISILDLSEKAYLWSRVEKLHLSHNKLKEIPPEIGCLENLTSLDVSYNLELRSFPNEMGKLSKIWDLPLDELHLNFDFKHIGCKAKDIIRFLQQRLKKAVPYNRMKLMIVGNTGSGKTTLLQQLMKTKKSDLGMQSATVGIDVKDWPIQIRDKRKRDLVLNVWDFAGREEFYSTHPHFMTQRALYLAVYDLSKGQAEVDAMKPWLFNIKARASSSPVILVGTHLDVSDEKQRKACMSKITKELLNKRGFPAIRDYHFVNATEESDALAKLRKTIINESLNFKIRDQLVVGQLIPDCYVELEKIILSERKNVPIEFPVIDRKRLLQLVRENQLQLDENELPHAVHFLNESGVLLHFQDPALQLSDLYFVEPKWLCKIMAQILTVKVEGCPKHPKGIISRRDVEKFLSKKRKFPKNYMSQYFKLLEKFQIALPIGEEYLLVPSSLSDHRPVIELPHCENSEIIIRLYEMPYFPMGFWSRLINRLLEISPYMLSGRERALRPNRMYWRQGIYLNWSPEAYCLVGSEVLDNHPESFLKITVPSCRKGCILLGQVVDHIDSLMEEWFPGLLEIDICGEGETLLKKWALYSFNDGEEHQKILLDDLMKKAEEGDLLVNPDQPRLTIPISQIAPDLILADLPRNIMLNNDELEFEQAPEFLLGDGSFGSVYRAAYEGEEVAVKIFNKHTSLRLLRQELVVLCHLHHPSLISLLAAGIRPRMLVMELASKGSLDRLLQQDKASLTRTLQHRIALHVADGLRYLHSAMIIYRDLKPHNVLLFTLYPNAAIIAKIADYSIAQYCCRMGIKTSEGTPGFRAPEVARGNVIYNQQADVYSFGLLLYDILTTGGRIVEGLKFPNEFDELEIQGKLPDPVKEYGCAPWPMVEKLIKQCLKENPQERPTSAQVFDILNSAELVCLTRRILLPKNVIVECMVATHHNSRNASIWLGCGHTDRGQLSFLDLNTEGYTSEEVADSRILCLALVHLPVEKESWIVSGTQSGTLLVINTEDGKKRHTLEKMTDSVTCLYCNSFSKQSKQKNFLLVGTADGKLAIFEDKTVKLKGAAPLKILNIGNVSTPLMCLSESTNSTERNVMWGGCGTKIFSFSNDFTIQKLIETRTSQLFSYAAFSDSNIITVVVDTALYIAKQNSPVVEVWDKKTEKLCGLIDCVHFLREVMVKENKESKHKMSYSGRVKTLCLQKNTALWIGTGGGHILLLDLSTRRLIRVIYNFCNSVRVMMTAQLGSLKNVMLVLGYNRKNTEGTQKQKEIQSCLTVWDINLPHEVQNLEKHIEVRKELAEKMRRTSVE

human GST-CLK1 = biological target: T5, human GST-CLK1 (Homo sapiens, UniProt P49759); assay: GST-CLK1 enzyme inhibition, ADP-Glo kinase assay; format: biochemical; conditions: ATP 10 μM, GST-CLK1 129-end
T5 construct: purified human GST-CLK1 (129-end, SignalChem) enzyme; purchased SignalChem
T5 sequence (P49759 129-484 limits assumed): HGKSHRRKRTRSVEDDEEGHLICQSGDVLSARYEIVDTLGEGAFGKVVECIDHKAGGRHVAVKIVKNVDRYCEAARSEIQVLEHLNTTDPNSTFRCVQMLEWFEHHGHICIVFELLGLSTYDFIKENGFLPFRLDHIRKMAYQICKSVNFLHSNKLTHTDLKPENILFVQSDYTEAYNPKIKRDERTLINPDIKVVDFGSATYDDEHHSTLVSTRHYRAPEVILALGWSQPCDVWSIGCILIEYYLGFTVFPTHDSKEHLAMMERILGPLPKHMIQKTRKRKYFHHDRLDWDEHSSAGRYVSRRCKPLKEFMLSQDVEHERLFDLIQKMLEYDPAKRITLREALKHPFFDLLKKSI
How it was run: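 ADP-Glo luminescence read-out, relative to untreated solvent control, gave IC50 (nM) from triplicate data sets. Reactions ran an hour at 25° C with 3 ng GST-CLK1 (residues 129-end), 10 μM ATP and specific substrate in Tris-HCl pH 7.4 buffer with MgCl2, BSA and DTT.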

LRRK2 [4] = biological target: T3, LRRK2; assay: LRRK2 enzyme inhibition, ADP-Glo kinase assay; format: biochemical; design: purchased Invitrogen PR8604B; conditions: ATP 10 μM
How it was run: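 ADP-Glo luminescent read-out of ADP formed by purified human LRRK2 enzyme (25 ng), 10 μM ATP, 0.2 μg substrate, 25° C for 2 h, Tris-HCl pH 7.4 buffer with MgCl2, BSA, DTT. Inhibition versus untreated solvent control over twelve final concentrations (50 μM downward) gives IC50.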
Target sequence in this assay (Q5S007 970-2527 limits assumed): as the sequence (Q5S007 970-2527 G2019S limits assumed) above, with S1050G counted along it

Row | SMILES | IC50 (DYRK1) | IC50 (CLK1) | IC50 (TTK) | GI50 (MDA-MB-468 cell line) | IC50 (LRRK2 [1]) | IC50 (LRRK2 (G2019S) [2]) | GI50 (MDA-MB-231 cell line) | IC50 (LRRK2 (G2019S) [3]) | IC50 (human GST-CLK1) | IC50 (LRRK2 [4]) | inhibition at 1 µM (human DYRK1A and tau) | inhibition at 0.25 µM (human DYRK1A and tau) | inhibition at 0.5 µM (human DYRK1A and tau) | inhibition at 0.5 µM (IL-6)
1 | O=C(c1ccc(Nc2nc(C3CC3)c3c(C(F)(F)F)c[nH]c3n2)c2c1OCCO2)N1CCOCC1 [Example 227, (8-((4-cyclopropyl-5-(trifluoromethyl)-7H-pyrrolo[2,3-d]pyrimidin-2-yl)amino)-2,3-dihydrobenzo[b][1,4]dioxin-5-yl)(morpholino)methanone] | < 100 nM | < 100 nM | 101 to 300 nM | 301 to 1000 nM | < 100 nM | < 100 nM |  |  |  |  | 32.7% | 7.4% | 22.8% | 
2 | COc1cc(S(=O)(=O)N2CCOCC2)ccc1Nc1nc(C2CC2)c2c(C(F)(F)F)c[nH]c2n1 [Example 225, 4-cyclopropyl-N-(2-methoxy-4-(morpholinosulfonyl)phenyl)-5-(trifluoromethyl)-7H-pyrrolo[2,3-d]pyrimidin-2-amine] | < 100 nM | < 100 nM | < 100 nM | 301 to 1000 nM | < 100 nM | < 100 nM | 301 to 1000 nM |  |  |  | 29.9% | 1% | -2.5% | 
3 | CCc1nc(Nc2ccc(P3(=O)CCN(C4CC4)CC3)cc2OC)nc2[nH]cc(C(F)(F)F)c12 [Example 396, 1-cyclopropyl-4-(4-((4-ethyl-5-(trifluoromethyl)-7H-pyrrolo[2,3-d]pyrimidin-2-yl)amino)-3-methoxyphenyl)-1,4-azaphosphinane-4-oxide] | < 100 nM |  |  |  |  |  |  |  | 301 to 1000 nM | 101 to 300 nM |  |  |  | 
4 | COc1cc(P2(=O)CCN(C3CC3)CC2)ccc1Nc1nc(C2CC2)c2c(C(F)(F)F)c[nH]c2n1 [Example 394, 1-cyclopropyl-4-(4-((4-cyclopropyl-5-(trifluoromethyl)-7H-pyrrolo[2,3-d]pyrimidin-2-yl)amino)-3-methoxyphenyl)-1,4-azaphosphinane4-oxide] | < 100 nM |  |  | 301 to 1000 nM |  |  |  |  | 301 to 1000 nM | < 100 nM |  |  |  | 
5 | N#Cc1c[nH]c2nc(Nc3ccc(C(=O)N4CCOCC4)c4c3OCCO4)nc(C3CC3)c12 [Example 220, 4-cyclopropyl-2-((8-(morpholine-4-carbonyl)-2,3-dihydrobenzo[b][1,4]dioxin-5-yl)amino)-7H-pyrrolo[2,3-d]pyrimidine-5-carbonitrile] | < 100 nM |  |  | 101 to 300 nM |  |  |  |  | < 100 nM | < 100 nM |  |  |  | 

Second part, led by results:

Row | IC50 (DYRK1) | IC50 (CLK1) | IC50 (TTK) | GI50 (MDA-MB-468 cell line) | IC50 (LRRK2 [1]) | IC50 (LRRK2 (G2019S) [2]) | GI50 (MDA-MB-231 cell line) | IC50 (LRRK2 (G2019S) [3]) | IC50 (human GST-CLK1) | IC50 (LRRK2 [4]) | SMILES | inhibition at 1 µM (human DYRK1A and tau) | inhibition at 0.25 µM (human DYRK1A and tau) | inhibition at 0.5 µM (human DYRK1A and tau) | inhibition at 0.5 µM (IL-6)
6 | < 100 nM | < 100 nM | < 100 nM | 301 to 1000 nM | < 100 nM |  |  |  |  |  | O=C(c1ccc(Nc2nc(C3CC3)c3c(C(F)(F)F)c[nH]c3n2)c2c1CCO2)N1CC[C@H](N2CCOCC2)C1 [Example 472] | 56.5% | 23.6% | 36.5% | 31.5%
7 | < 100 nM | < 100 nM |  | 101 to 300 nM | < 100 nM |  | 101 to 300 nM | < 100 nM |  |  | C=CCNc1nc(Nc2ccc(S(=O)(=O)N3CCC(N4CCOCC4)CC3)cc2OC)nc2[nH]cc(C(F)(F)F)c12 [Example 469, N^4-allyl-N2-(2-methoxy-4-((4-morpholino-piperidin-1-yl)sulfonyl)phenyl)-5-(trifluoromethyl)-7H-pyrrolo[2,3-d]pyrimidine-2,4-diamine] |  |  |  | 
8 | < 100 nM |  |  |  |  |  |  |  | < 100 nM |  | O=C(c1ccc(Nc2nc(C3CC3)c3c(C(F)(F)F)c[nH]c3n2)c2c1CCO2)N1CC[C@@H](N2CCOCC2)C1 [Example 471, (R)-(7-((4-cyclopropyl-5-(trifluoromethyl)-7H-pyrrolo[2,3-d]pyrimidin-2-yl)amino)-2,3-dihydrobenzo-furan-4-yl)(3-morpholino-pyrrolidin-1-yl)methanone] | 42.8% | 3.9% | 29.6% | 
9 | < 100 nM |  |  |  |  |  |  |  | 301 to 1000 nM |  | O=S(=O)(c1ccc(Nc2nc(C3CC3)c3c(C(F)(F)F)c[nH]c3n2)c2c1OCCO2)N1CCOCC1 [Example 470, 4-cyclopropyl-N-(8-(morpho-linosulfonyl)-2,3-dihydrobenzo [b][1,4]dioxin-5-yl)-5-(trifluoromethyl)-7H-pyrrolo[2,3-d]pyrimidin-2-amine] | 29.1% | 5.8% | 19.2% | 
